From patent publication US20190292243A1, “PEPTIDES AND METHODS OF USE THEREOF” (Fred Hutchinson Cancer Research Center, priority 2016, published 2019)
Square brackets hold non-standard residues; d marks the D form. Ends that are not written are not given here. Peptide text beside a SMILES is read from it. * marks the point of attachment. Dolaproine = CO[C@@H]([C@@H]1CCCN1)[C@@H](C)C(=O)O; Dil = CC[C@H](C)[C@H](NC)[C@@H](CC(=O)O)OC; X1 = C[C@@H](N*)[C@@H](O)c1ccccc1; NMeV = CN[C@H](C(=O)O)C(C)C

Experiments:
[1] = tested on: Caspase-3 activation in Ramos lymphoma tumor, liver, kidney; experiment: Caspase-3 staining of tissues after MMAE or peptide-MMAE conjugate; type: in vivo, female Harlan athymic mice; settings: 7.5 nmol, 48 hours after single systemic administration
Protocol: This example illustrates whole-body autoradiography and Caspase-3 staining after administration of peptide conjugated to MMAE. MMAE was conjugated to a peptide of SEQ ID NO: 26 with a Val-Cit-PABC linker to produce a SEQ ID NO: 26-B peptide conjugate (SEQ ID NO: 26-B). 7.5 nmol MMAE or 7.5 nmol SEQ ID NO: 26-B were administered to RH-28 tumor-bearing or Ramos lymphoma tumor-bearing female Harlan athymic mice and allowed to freely circulate for 24 or 48 hours.

[2] = tested on: A375 cells and RH28 cells; experiment: Modulation of SEQ ID NO: 15-A accumulation in cells by small molecule drugs (flow cytometry median fluorescence); type: cell-based; settings: drug at increasing concentrations with 1 μM SEQ ID NO: 15-A
Description: This example illustrates the small molecule drug enhancing properties of peptides of this disclosure. Peptides of this disclosure were useful in enhancing or dampening the potency of several small molecule drugs. […] The Approved Oncology Drugs Plated Set VII was obtained from NCI and included histone deacetylase (HDAC) inhibitors such as vorinostat, belinostat, panobinostat, and […]. The tested set also included tyrosine kinase inhibitors, protease inhibitors, and anthracyclines. A375 cells and RH28 cells were plated at 10,000 cells per well in 96 well plates and allowed to adhere overnight. […] Cells were washed three times with PBS-FBS and once in PBS. Cells were trypsinized, resuspended in PBS-FBS-DAPI, and assessed for average fluorescence as compared to untreated cells by flow cytometry analysis. […] Cells were washed three times with PBS-FBS and once in PBS. Cells were trypsinized, resuspended in PBS-FBS-DAPI, and assessed for average fluorescence as compared to untreated cells by flow cytometry analysis.

[3] = tested on: RH28 flank tumors; experiment: Chirality in tumor homing, RH28 flank tumors (ex vivo IVIS); parameters: species or system mice; settings: AF647 conjugates, 10 nmol per mouse intravenously, one hour
Protocol: This example illustrates the role of chirality in tumor homing peptides of this disclosure. Each L-enantiomer in a peptide of SEQ ID NO: 15 was replaced with the corresponding D-enantiomer (SEQ ID NO: 36). Both peptides were conjugated to AlexaFluor 647 and tumor homing, and homing to the liver and kidneys was assessed by fluorescence quantification. […] Peptide-AF647 conjugates were administered intravenously to mice bearing RH28 flank tumors at 10 nmol per mouse. Mice were euthanized one hour post-administration, organs were necropsied, and tissues were analyzed ex vivo using an IVIS imager. P-values were determined using an unpaired Student's t-test.

[4] = tested on: HeLa cells; experiment: Uptake of peptide-AF647 conjugate in HeLa cells (fluorescence microscopy, flow cytometry, endocytosis inhibitors); type: cell-based; settings: for effect of endocytic inhibitors on uptake of SEQ ID NO: 15-A: SEQ ID NO: 15-A at 4 μM, flow cytometry, pre-treatment of HeLa cells
Protocol: SEQ ID NO: 15-A and HIV-Tat-FITC, an HIV-Tat protein conjugated to a FITC fluorophore, were each dosed in HeLa cells at a concentration of 20 μM. The fluorescence image was taken on a Nikon Live microscope at 40× magnification, four hours after cells were dosed with SEQ ID NO: 15-A and HIV-Tat-FITC. The green fluorescence (FITC) and the red fluorescence (AF647) were located in different punctate regions, showing that the two molecules are localized in different vesicles.
Fluorescence was measured via flow cytometry and quantified to determine uptake of the peptide conjugate in cells.
SEQ ID NO: 15-A was dosed at a concentration of […] HIV-Tat-FITC was dosed at a concentration of 1 mM, and Dextran-Texas Red was dosed at a concentration of 25 mg/ml.

[5] = tested on: RH28 cell line; experiment: Relative viability of RH28 cells; type: cell-based; settings: various doses
Protocol: (§1) This example describes the viability different cell lines to MMAE or MMAE-peptide conjugates and toxicity induced by delivery of MMAE to cells by a peptide conjugate of the disclosure. A peptide of SEQ ID NO: 26 was expressed recombinantly or chemically synthesized and then conjugated to a therapeutic agent, MMAE, by a Val-Cit-PAB linker, producing SEQ ID NO: 26-B peptide conjugate (SEQ ID NO: 26-B). HeLa cells were treated in vitro with MMAE, SEQ ID NO: 26 peptide, or SEQ ID NO: 26-B, and viability was quantified. Ewing's Sarcoma cell lines including the RH28 cell line, A673 cell line, and A204 cell line, were treated in vitro with MMAE or SEQ ID NO: 26-B for 48-72 hours and viability of cells was quantified.

[6] = tested on: A673 cell line; experiment: Relative viability of A673 cells; type: cell-based; settings: various doses
Protocol: as §1

[7] = Folding of manufactured peptide variants (HPLC traces); type: physicochemical
Description: Generally, the NMR solution structures of related structural homologs can be used to inform mutational strategies that may improve the folding, stability, manufacturability, while maintaining a particular biological function. They can be used to predict the 3D pharmacophore of a group of structurally homologous scaffolds, as wells as to predict possible graft regions of related proteins to create chimeras with improved properties. The general strategy for producing homologs can include identification of a charged surface patch of a protein, mutation of critical amino acid positions and loops, and testing of sequences. This strategy can be used to design peptides with improved properties or to correct deleterious mutations that complicate folding and manufacturability. […] Accordingly, three amino acid positions (R11, R13, and R31) were chosen to be individually mutated to improve stability, yielding peptides of SEQ ID NO: 18, SEQ ID NO: 20, and SEQ ID NO: 25.
This example illustrates the modification of a function of a peptide. A peptide of SEQ ID NO: 15 was modified at positively charge patches to give a peptide of SEQ ID NO: 1 and a peptide of SEQ ID NO: 2. The modified peptides were expressed recombinantly. Mutations at positively charged patches of a peptide of SEQ ID NO: 15 were not well tolerated as indicated by the lack of folding purity indicated by the HPLC traces in FIG. 15.

[8] = tested on: RH-28 tumor; experiment: Whole-body autoradiography after peptide-MMAE conjugate administration, RH-28 tumor; type: in vivo, female Harlan athymic mice; settings: 14 nmol, 24 hours after administration
Description: This example illustrates whole-body autoradiography and Caspase-3 staining after administration of peptide conjugated to MMAE. MMAE was conjugated to a peptide of SEQ ID NO: 26 with a Val-Cit-PABC linker to produce a SEQ ID NO: 26-B peptide conjugate (SEQ ID NO: 26-B). […]
At the end of the dosing period, mice were frozen in a hexane/dry ice bath and then frozen in a block of carboxymethylcellulose. […] Thin, frozen sections of mice were obtained with a microtome, allowed to desiccate in a freezer, and exposed to phosphoimager plates for about ten days.
These plates were developed, and the signal (densitometry) from each organ was normalized to the signal found in the heart blood of each mouse. A signal in tissue darker than the signal expected from blood in that tissue indicates peptide accumulation in a region, tissue, structure or cell.

[9] = tested on: A204 cell line; experiment: Relative viability of A204 cells; type: cell-based; settings: 48 hours after administration, various doses
Protocol: as §1

[10] = 72 hours of continuous treatment

Compound: CC[C@H](C)[C@@H]([C@@H](CC(=O)N1CCC[C@H]1[C@H](OC)[C@@H](C)C(=O)N[C@H](C)[C@@H](O)c1ccccc1)OC)N(C)C(=O)[C@@H](NC(=O)[C@@H](NC)C(C)C)C(C)C [MMAE, monomethyl auristatin E] (H-[NMeV]V[Dil][Dolaproine]-X1)
- Caspase-3 staining in tumor, liver and kidney [1]: induction of apoptosis

Compound: Nc1ccn([C@@H]2O[C@H](CO)[C@@H](O)[C@@H]2O)c(=O)n1 [cytarabine]
- modulation of accumulation of SEQ ID NO: 15-A in tumor cells (median fluorescence vs untreated) [2]: modulate the accumulation of peptides of this disclosure to tumor cells

Compound: GSSCEPGRTFRDRCNTCRCGADGRSAACTLRACPNQ (not fully specified (some residues); ends and bridges not checked) [SEQ ID NO: 15]
- homing to RH28 flank tumor (average radiant efficiency fluorescence), L- vs D-amino acid peptide [3]: higher homing to flank tumor than a peptide of SEQ ID NO: 36

Compound: SEQ ID NO: 15-A (GSSCEPGRTFRDRCNTCRCGADGRSAACTLRACPNQ; cysteine pairing not given here; also: conjugate A)
- internalization by HeLa cells (fluorescence image) ([4]; 20 μM, four hours after dosing, 40×): internalized by HeLa cells

Compound: O=C(CCCCCCC(=O)Nc1ccccc1)NO [vorinostat]
- modulation of accumulation of SEQ ID NO: 15-A in tumor cells (median fluorescence vs untreated) [2]: modulate the accumulation of peptides of this disclosure to tumor cells

Compound: SEQ ID NO: 26-B (GSSCEPGRTFRDRCNTCKCGADGRSAACTLRACPNQ; cysteine pairing not given here; also: conjugate B)
- relative viability / growth of RH28 cells [5, 10]: inhibited growth of both cell lines
- relative viability / growth of A673 cells [6, 10]: inhibited growth of both cell lines

Compound: Cn1c(=O)n(-c2ccc(C(C)(C)C#N)cc2)c2c3cc(-c4cnc5ccccc5c4)ccc3ncc21 [BEZ235]
- modulation of accumulation of SEQ ID NO: 15-A in tumor cells (median fluorescence vs untreated) [2]: modulate the accumulation of peptides of this disclosure to tumor cells

Compound: CCCCC[C@@H](O)[C@H]1C(=O)O[C@H](C)[C@@H](O)/C=C/C=C/C=C/C=C/C=C(\C)[C@@H](O)C[C@H](O)C[C@H](O)C[C@H](O)C[C@H](O)C[C@H](O)C[C@@H]1O [filipin]
- effect of endocytic inhibitors on uptake of SEQ ID NO: 15-A [4]: inhibit the uptake of SEQ ID NO: 15-A

Compound: bleomycin
- modulation of accumulation of SEQ ID NO: 15-A in tumor cells (median fluorescence vs untreated) [2]: modulate the accumulation of peptides of this disclosure to tumor cells

Compound: methyl-beta-cyclodextrin [methyl-beta-cyclodextrin (MBCD)]
- inhibition of uptake of SEQ ID NO: 15-A relative to dextran and HIV-Tat ([4]; 2 mM MBCD pre-treatment of HeLa cells): inhibits uptake of SEQ ID NO: 15-A to a greater extent than dextran, a fluid-phase marker, or HIV-Tat
- effect of endocytic inhibitors on uptake of SEQ ID NO: 15-A [4]: inhibit the uptake of SEQ ID NO: 15-A

Compound: GSSCEPGRTFRDECNTCRCGADGRSAACTLRACPNQ [SEQ ID NO: 20]
- folding of the manufactured peptide [7]: Improved folding

Compound: GSSCEPGRTFADACNTCRCGADGRSAACTLAACPNQ [SEQ ID NO: 2]
- folding of the manufactured peptide [7]: unable to fold

Compound: SEQ ID NO: 26-Br (GSSCEPGRTFRDRCNTCKCGADGRSAACTLRACPNQ; cysteine pairing not given here; also: conjugate Br)
- 14C signal distribution in tissues (autoradiography) [8]: accumulation in the RH-28 tumor

Compound: GSSCEPGRTFEDRCNTCRCGADGRSAACTLRACPNQ [SEQ ID NO: 18]
- folding of the manufactured peptide [7]: Improved folding

Compound: SEQ ID NO: 15-B (GSSCEPGRTFRDRCNTCRCGADGRSAACTLRACPNQ; cysteine pairing not given here; also: conjugate B)
- relative viability / growth of RH28 cells ([5]; 48 hours after administration): inhibited growth of all three cell lines
- relative viability / growth of A673 cells ([6]; 48 hours after administration): inhibited growth of all three cell lines
- relative viability / growth of A204 cells [9]: inhibited growth of all three cell lines

Compound: GSSCEPGRTFEDECNTCRCGADGRSAACTLEACPNQ [SEQ ID NO: 1]
- folding of the manufactured peptide [7]: unable to fold

Compound: GSSCEPGRTFRDRCNTCRCGADGRSAACTLEACPNQ [SEQ ID NO: 25]
- folding of the manufactured peptide [7]: Improved folding
